Laboratory results: patent publication US11401264B2, “Heterocyclic compound” (Orizuru Therapeutics, Inc., priority 2018, dated 2022)

System: cardiomyocytes from double knock-in human iPS cell lines (mCherry at TNNI3 locus)
Test: Experimental Example 1: mCherry (TNNI3 reporter) immunostaining measured by high contents screening
Type: cell-based
Set-up: key to average fluorescent intensity (at 30 μM): —: The symbol in Table 2 means that the average fluorescent intensity cannot be evaluated due to cell decrease
Conditions: read on 8th day, Alexa 647 anti-mCherry, control well 797; for average fluorescent intensity (at 1 μM): test compound 1 μM added on 3rd and 6th culture days; for average fluorescent intensity (at 30 μM): test compound 30 μM added on 3rd and 6th culture days
Method: For detection of cardiomyocyte maturation, double knock-in human iPS cell lines, in which reporter protein sequences, EmGFP (Sequence Number 1) and mCherry (Sequence Number 2) were inserted into gene loci for TNNI1 and TNNI3, respectively, were prepared (the human iPS cells were prepared from episomal vector (loaded gene; OCT3/4, KLF4, SOX2, L-MYC, LIN28, mouse p53DD) using PBMC (LP_167, Sample ID: 20130318) purchased from CTL (reference literature; Okita K, et al. Stem Cells. 2012 Nov. 29. doi: 10.1002/stem.1293)).
The maintenance culture of the above-mentioned reporter iPS cell lines was carried out by a conventional method (Okita K, et al. Stem Cells. 2012 Nov. 29. doi: 10.1002/stem.1293).
For differentiation induction into cardiomyocytes, the reporter iPS cell lines were treated with 0.5×TrypLE select (Life Technologies, diluted in 1/2 with 0.5 mM EDTA/PBS) for 4 to 5 minutes, and the cells were exfoliated using a cell scraper (IWAKI), and then dissociated into the single cell by pipetting. The medium was removed by centrifugation (1,000 rpm, 5 min), and the obtained cells were seeded on a bioreactor (ABLE) by 1×10^7 cells per 30 mL of the bioreactor, and then cultured in a medium prepared by adding 1% L-glutamine, transferrin 150 μg/mL, ascorbic acid 50 μg/mL (Sigma), monothioglycerol 4×10^−4 M, 10 μM Rock inhibitor (Y-27632), 2 ng/mL BMP4 (R&D) and 0.5% Matrigel (Growth Factor Reduced) to a medium after removal of solution C from StemFit AK02 (AJINOMOTO AK02, 400 mL of solution A and 100 mL of B solution, total 500 mL), at 37° C., under 5% oxygen condition (55 rpm, stirred suspension culture method) to form embryoid bodies (0 day).
Next day (1st day), 9 μL (final concentration 3 ng/mL) of 10 μg/mL activin A, 15 μL (final concentration 5 ng/mL) of 10 μg/mL bFGF and […] (final concentration 10 ng/mL) of 10 μg/mL BMP4 were added to the bioreactor, and the cells were cultured at 37° C. for additional 2 days, under 5% oxygen condition.
Then (3rd day), the obtained embryoid bodies were collected in a 50 mL centrifuge tube, and then subjected to centrifugation (200 g, 1 min). The medium was removed, and the embryoid bodies were cultured in a medium prepared by adding 1% L-glutamine, transferrin 150 μg/mL, ascorbic acid 50 μg/mL (Sigma), monothioglycerol 4×10^−4 M, 10 ng/mL VEGF, 1 μM IWP-3, 0.6 μM dorsomorphin and 5.4 μM SB431542 to a medium after removal of solution C from StemFit AK02 (AJINOMOTO AK02, 400 mL of solution A and 100 mL of B solution, total 500 mL), at 37° C. for 3 days, under 5% oxygen condition (55 rpm, stirred suspension culture method).
Then (6th day), the bioreactor was left to stand to precipitate the embryoid bodies, and 80 to 90% of the medium was removed. A medium prepared by adding 1% L-glutamine, transferrin 150 μg/mL, ascorbic acid 50 μg/mL (Sigma), monothioglycerol […] and 5 ng/mL VEGF to a medium after removal of solution C from StemFit AK02 (AJINOMOTO AK02, 400 mL of solution A and 100 mL of B solution, total 500 mL) was added to the bioreactor so that the total volume became 30 mL, and the embryoid bodies were cultured for 8 days, at 37° C., under 5% oxygen condition (55 rpm, stirred suspension culture method). During the culture, the medium was replaced with a medium under the same conditions every 2 to 3 days.
14th Day after the start of the differentiation induction, the embryoid bodies were treated with 2 mg/mL collagenase type I (Sigma) for 2 hr, and then with 0.25% trypsin/EDTA (Invitrogen) for 10 min. 50% FBS/IMDM (Thermo Fisher Science) was added thereto, and the embryoid bodies were dissociated into the single cell by pipetting, and then subjected to centrifugation (1,000 rpm, 5 minutes). […]

Structure (SMILES) | average fluorescent intensity (at 1 μM) | average fluorescent intensity (at 30 μM)
CN(C(=O)COc1ccc(-c2nc3cc(N4Cc5cc(N6CCCCC6)ccc5C4=O)ccc3[nH]2)cc1)C1CCOCC1 [Example 14, N-methyl-2-(4-(5-(1-oxo-5-(piperidin-1-yl)-1,3-dihydro-2H-isoindol-2-yl)-1H-benzimidazol-2-yl)phenoxy)-N-(tetrahydro-2H-pyran-4-yl)acetamide] | 2143 | 2012
CC1(O)CCN(C(=O)COc2ccc(-c3nc4cc(N5Cc6cc(N7CCCCC7)ccc6C5=O)ccc4[nH]3)cc2)CC1 [Example 15, 2-(2-(4-(2-(4-hydroxy-4-methylpiperidin-1-yl)-2-oxoethoxy)phenyl)-1H-benzimidazol-5-yl)-5-(piperidin-1-yl)isoindolin-1-one] | 1701 | 2697
O=C(COc1ccc(-c2nc3cc(N4Cc5cc(N6CCCCC6)ccc5C4=O)ccc3[nH]2)cc1)N1CCS(=O)(=O)C1 [Example 16] | 1366 | 3604
CC1(NC(=O)COc2ccc(-c3nc4cc(N5Cc6cc(N7CCCCC7)ccc6C5=O)ccc4[nH]3)cc2)CC1 [Example 18, N-(1-methylcyclopropyl)-2-(4-(5-(1-oxo-5-(piperidin-1-yl)-1,3-dihydro-2H-isoindol-2-yl)-1H-benzimidazol-2-yl)phenoxy)acetamide] | 1272 | 1704
O=C(COc1ccc(-c2nc3cc(N4Cc5cc(N6CCCCC6)ccc5C4=O)ccc3[nH]2)cc1)Nc1ccc(F)cc1 [Example 19, N-(4-fluorophenyl)-2-(4-(5-(1-oxo-5-(piperidin-1-yl)-1,3-dihydro-2H-isoindol-2-yl)-1H-benzimidazol-2-yl)phenoxy)acetamide] | 1292 | 860
O=C(COc1ccc(-c2nc3cc(N4Cc5cc(N6CCCCC6)ccc5C4=O)ccc3[nH]2)cc1)Nc1ccccc1F [Example 20, N-(2-fluorophenyl)-2-(4-(5-(1-oxo-5-(piperidin-1-yl)-1,3-dihydro-2H-isoindol-2-yl)-1H-benzimidazol-2-yl)phenoxy)acetamide] | 1685 | 
O=C(COc1ccc(-c2nc3cc(N4Cc5cc(N6CCCCC6)ccc5C4=O)ccc3[nH]2)cc1)Nc1ccc(Cl)cc1 [Example 21, N-(4-chlorophenyl)-2-(4-(5-(1-oxo-5-(piperidin-1-yl)-1,3-dihydro-2H-isoindol-2-yl)-1H-benzimidazol-2-yl)phenoxy)acetamide] | 1120 | —
Cc1ccc(NC(=O)COc2ccc(-c3nc4cc(N5Cc6cc(N7CCCCC7)ccc6C5=O)ccc4[nH]3)cc2)cc1 [Example 22, N-(4-methylphenyl)-2-(4-(5-(1-oxo-5-(piperidin-1-yl)-1,3-dihydro-2H-isoindol-2-yl)-1H-benzimidazol-2-yl)phenoxy)acetamide] | 1211 | —
Cc1cccc(NC(=O)COc2ccc(-c3nc4cc(N5Cc6cc(N7CCCCC7)ccc6C5=O)ccc4[nH]3)cc2)c1 [Example 23, N-(3-methylphenyl)-2-(4-(5-(1-oxo-5-(piperidin-1-yl)-1,3-dihydro-2H-isoindol-2-yl)-1H-benzimidazol-2-yl)phenoxy)acetamide] | 1386 | 
O=C(COc1ccc(-c2nc3cc(N4Cc5cc(N6CCCCC6)ccc5C4=O)ccc3[nH]2)cc1)NCCCc1ccccc1 [Example 24, 2-(4-(5-(1-oxo-5-(piperidin-1-yl)-1,3-dihydro-2H-isoindol-2-yl)-1H-benzimidazol-2-yl)phenoxy)-N-(3-phenylpropyl)acetamide] | 1241 | —
O=C(COc1ccc(-c2nc3cc(N4Cc5cc(N6CCCCC6)ccc5C4=O)ccc3[nH]2)cc1)NC1CC1 [Example 25, N-cyclopropyl-2-(4-(5-(1-oxo-5-(piperidin-1-yl)-1,3-dihydro-2H-isoindol-2-yl)-1H-benzimidazol-2-yl)phenoxy)acetamide] | 1260 | 900
CC(C)CNC(=O)COc1ccc(-c2nc3cc(N4Cc5cc(N6CCCCC6)ccc5C4=O)ccc3[nH]2)cc1 [Example 26, N-isobutyl-2-(4-(5-(1-oxo-5-(piperidin-1-yl)-1,3-dihydro-2H-isoindol-2-yl)-1H-benzimidazol-2-yl)phenoxy)acetamide] | 1809 | —
O=C(COc1ccc(-c2nc3cc(N4Cc5cc(N6CCCCC6)ccc5C4=O)ccc3[nH]2)cc1)NCC1CC1 [Example 27, N-(cyclopropylmethyl)-2-(4-(5-(1-oxo-5-(piperidin-1-yl)-1,3-dihydro-2H-isoindol-2-yl)-1H-benzimidazol-2-yl)phenoxy)acetamide] | 1821 | —
CCCNC(=O)COc1ccc(-c2nc3cc(N4Cc5cc(N6CCCCC6)ccc5C4=O)ccc3[nH]2)cc1 [Example 28, 2-(4-(5-(1-oxo-5-(piperidin-1-yl)-1,3-dihydro-2H-isoindol-2-yl)-1H-benzimidazol-2-yl)phenoxy)-N-propylacetamide] | 1540 | —
CC(C)NC(=O)COc1ccc(-c2nc3cc(N4Cc5cc(N6CCOCC6)ccc5C4=O)ccc3[nH]2)cc1 [Example 29, N-isopropyl-2-(4-(5-(5-(morpholin-4-yl)-1-oxo-1,3-dihydro-2H-isoindol-2-yl)-1H-benzimidazol-2-yl)phenoxy)acetamide] | 1120 | 910
O=C(COc1ccc(-c2nc3cc(N4Cc5cc(N6CCOCC6)ccc5C4=O)ccc3[nH]2)cc1)NCC1CCOCC1 [Example 30, 2-(4-(5-(5-(morpholin-4-yl)-1-oxo-1,3-dihydro-2H-isoindol-2-yl)-1H-benzimidazol-2-yl)phenoxy)-N-(tetrahydro-2H-pyran-4-ylmethyl)acetamide] | 1005 | 876
O=C(COc1ccc(-c2nc3cc(N4Cc5cc(N6CCOCC6)ccc5C4=O)ccc3[nH]2)cc1)NC1CCOCC1 [Example 31, 2-(4-(5-(5-(morpholin-4-yl)-1-oxo-1,3-dihydro-2H-isoindol-2-yl)-1H-benzimidazol-2-yl)phenoxy)-N-(tetrahydro-2H-pyran-4-yl)acetamide] | 736 | 888
O=C(COc1ccc(-c2nc3cc(N4Cc5cc(N6CCOCC6)ccc5C4=O)ccc3[nH]2)cc1)N1CCOCC1 [Example 32, 5-(morpholin-4-yl)-2-(2-(4-(2-(morpholin-4-yl)-2-oxoethoxy)phenyl)-1H-benzimidazol-5-yl)isoindolin-1-one] | 1312 | 1937
O=C(COc1ccc(-c2nc3cc(N4Cc5cc(N6CCOCC6)ccc5C4=O)ccc3[nH]2)cc1)N1CCCCC1 [Example 33, 5-(morpholin-4-yl)-2-(2-(4-(2-oxo-2-(piperidin-1-yl)ethoxy)phenyl)-1H-benzimidazol-5-yl)isoindolin-1-one] | 1568 | 3010
